# From patent publication US7745473B2, “Indole derivative for alkylating specific base sequence of DNA and alkylating agent and drug containing the derivative” (Kyoto University, priority 2004, dated 2010)
# “Also recorded” adds a separate entry of the source.
# Experiments:
# [1] = system: DNA fragment (SEQ ID NO:11) derived from pQBI63; experiment: DNA alkylation of 5′-Texas Red-labeled DNA fragment (994 bp); format: biochemical; details: FIG. 5
# Protocol: A 5′-Texas Red-labeled DNA fragment (994 bp) (pQBI63; SEQ ID NO:11) was prepared by a PCR method using a 20-base-pair primer, i.e., 5′-[…]-3′ (SEQ ID NO:12), and a 5′-Texas Red-labeled 20-base-pair primer, i.e., 5′-TexRed-[…]-3′ (SEQ ID NO:13), pQBI63 plasmid being used as a template.
# (§1) Analysis by polyacrylamide gel electrophoresis was performed by the following process: A standard reaction solution containing the 5′-Texas Red-end-labeled DNA fragment (10 nM), DMF (10% (v/v)), and an agent having a concentration described above in a sodium phosphate buffer (5 mM, total volume: 10 μL, pH=7.0) was charged into a microfuge tube (Eppendorf) and left standing at 23° C. for 8 hours. After completion of the reaction, the reaction was quenched by the addition of calf thymus DNA (1 mM, 1 μL). The resulting mixture was shaken at 90° C. for 5 minutes. The DNA obtained by centrifugation under reduced pressure was dissolved by the addition of 8 μl, of loading dye (fushin red solution in DMF), shaken at 94° C. for 20 minutes, and then immediately cooled to 0° C. A 2-μL aliquot was separated electrophoretically on a 6% denaturing polyacrylamide gel using a Hitachi 5500-S DNA sequencer. The following tests were conducted in a similar way. […]
# [2] = system: 727-bp DNA fragment (SEQ ID NO:14); experiment: Sequence-specific alkylation of DNA by polyamide heterodimer; format: biochemical; details: 727-bp fragment, FIG. 7
# Protocol: A 5′-Texas Red-labeled 727-bp DNA fragment (SEQ ID NO:14) was prepared by a PCR method using a 5′-Texas Red-labeled 20-base-pair primer, i.e., 5′-TexRed-[…]-3′ (SEQ ID NO:15), and a 21-base-pair primer, i.e., 5′-[…]-3′ (SEQ ID NO:16), a plasmid containing MLP into which the code base sequence of human β-globin was integrated being used as a template.
# as §1
# [3] = system: DNA fragment (446 bp; SEQ ID NO:17) containing 24 repeats of a telomeric sequence; experiment: DNA alkylation targeting telomeric sequence; format: biochemical; details: 446 bp fragment, nanomolar concentrations, FIG. 8
# Protocol: A 5′-Texas Red-labeled 446-bp DNA fragment (SEQ ID NO:17 with a 24-times-repeated telomere sequence was prepared by a PCR method using a 5′-Texas Red-labeled 20-base pair primer, i.e., 5′-TexRed-[…]-3′ (SEQ ID NO:18), and a 20-base-pair primer, i.e., 5′-[…]-3′ (SEQ ID NO:19), pCR2.1 plasmid into which an oligomer having a repetitive telomere sequence was integrated from the cleavage site by EcoRI being used as a template. The resulting each DNA fragment was purified by filtration using Suprec-02. The concentration of each resulting product was determined by measuring UV absorption.
# as §1, with “C.” for “C. A 2-μL aliquot was separated electrophoretically on a 6% denaturing polyacrylamide gel using a Hitachi 5500-S DNA sequencer. The following tests were conducted in a similar way.”
# [4] = system: long-chain DNA (pUC-II; SEQ ID NO:4, pUC-I′; SEQ ID NO:1); experiment: DNA alkylation of 5′-Texas Red-labeled long-chain DNA, analysed by polyacrylamide gel electrophoresis; format: biochemical; details: 8 hours, pUC-II and pUC-I′, FIG. 2
# Protocol: A 5′-Texas Red-labeled DNA fragment (450 bp) (pUC-I′, SEQ ID NO:1) was prepared by a PCR method using a 5′-Texas Red-labeled 20-base-pair primer, i.e., 5′-TexRed-[…]-3′ (pUC18 forward, 780-799; SEQ ID NO:2), and a 20-base-pair primer, i.e., 5′-[…]-3′ (pUC18 reverse, 1459-1478; SEQ ID NO:3), puc18 being used as a template. The DNA fragment was in a double-stranded state including a complementary strand (the following fragments were in the same state).
# A 5′-Texas Red-labeled DNA fragment (450 bp) (pUC-II, SEQ ID NO:4) was prepared by a PCR method using a 5′-Texas Red-labeled 21-base-pair primer, i.e., 5′-TexRed-[…]-3′ (pUC18 reverse, 1861-1881; SEQ ID NO:5), and a 19-base-pair primer, i.e., 5-TGTAAAACGACGGCCAGTG-3′ (pUC18 forward, 328-345; SEQ ID NO:6), puc18 being used as a template.
# (§2) Analysis by polyacrylamide gel electrophoresis was performed by the following process: A standard reaction solution containing the 5′-Texas Red-end-labeled DNA fragment (10 nM), DMF (10% (v/v)), and an agent having a concentration described above in a sodium phosphate buffer (5 mM, total volume: 10 μL, pH=7.0) was charged into a microfuge tube (Eppendorf) and left standing at 23° C. for 8 hours. After completion of the reaction, the reaction was quenched by the addition of calf thymus DNA (1 mM, 1 μL). The resulting mixture was shaken at 90° C. for 5 minutes. The DNA obtained by centrifugation under reduced pressure was dissolved by the addition of 8 μl, of loading dye (fushin red solution in DMF), shaken at 94° C. for 20 minutes, and then immediately cooled to 0° C. A 2-μL aliquot was separated electrophoretically on a 6% denaturing polyacrylamide gel using a Hitachi 5500-S DNA sequencer. The following tests were conducted in a similar way.
# The reaction of compounds (3-2) and (3-3) prepared in the above-described Synthesis Examples with DNA was studied using the long-chain DNA (pUC-II; SEQ ID NO:4, pUC-I′; SEQ ID NO:1). An alkylation reaction was performed for 8 hours. The sequence alkylated was analyzed by polyacrylic gel electrophoresis for sequence determination. […] However, the difference in sequence recognition ability was observed. […] From the stand point of the sequence recognition ability, the molecular design of compound (3-2) was excellent.
# [5] = system: long-chain DNA (λ-F10906; SEQ ID NO:8); experiment: as above; format: biochemical; details: λ-F10906, nanomolar concentrations, FIG. 4
# Protocol: A 5′-Texas Red-labeled DNA fragment (537 bp) (λ-F10906; SEQ ID NO:8) was prepared by a PCR method using a 5′-Texas Red-labeled 23-base-pair primer, i.e., 5′-TexRed-[…]-3′ (λ-DNA forward, 10960-10982; SEQ ID NO:9), and a 20-base-pair primer, i.e., 5′-[…]-3′ (λ-DNA reverse, 37007-37026; SEQ ID NO:10), λ-DNA being used as a template.
# as §2
# The reaction of compounds (3-2), (3-4), and (3-5) with DNA was studied using the long-chain DNA (λ-F10906; SEQ ID NO:8). The DNA-alkylating ability of each compound was evaluated.
# [6] = system: HCT-116 (human colon cancer-derived cell); details: read-out: 50% cell growth inhibitory concentration (IC50); HCT-116, 48 hours, 0.1% DMF
# Protocol: (§3) HCT-116 (human colon cancer-derived cell), HeLa (human cervical cancer-derived cell), HLC-2 (human lung cancer-derived cell), and SH-SY-5Y (human neuroblast-derived cell) were treated with AcImImPyPy-γ-ImPy-Indole-CBI (3-2) (10^−5 to 10^−8 M with 0.1% DMF) for 48 hours to evaluate the effect of the compound as an anticancer agent.
# (§4) Evaluation of anticancer activity was made by the following process: HCT-116, HeLa, HLC-2, and SH-SY-5Y cell lines were seeded into a 96-well flat bottom plate in complete media [RPMI1640 (HCT-116, SH-SY-5Y; Sigma-Aldrich Co.) each containing 10% fetal bovine serum and Dulbecco's […] (HeLa, HLC-2, 293T, WI-38; Sigma-Aldrich Co.)] at cell densities of 4.0×10^3, 3.6×10^3, 1.6×10^3, 7.0×10^2, 5.0×10^2, and 8.0×10^2 cells/well and were precultured for 24 hours in a CO2 incubator. The media were replaced with complete media containing 0.1% DMF and 10^−5 to 10^−8 M AcImImPyPy-γ-ImPy-Indole-CBI (3-2). Incubation was performed for 48 hours in the CO2 incubator. Then, 10 μL/well of a Cell Counting Kit-8 (Dojindo Laboratories) was added. The specimens were left standing for 2 hours in the CO2 incubator. Absorbance was measured with a microplate reader MPR-A4I (Tosoh Corp.).
# [7] = system: HeLa (human cervical cancer-derived cell); details: read-out: 50% cell growth inhibitory concentration (IC50), 48 hours, 0.1% DMF
# Protocol: as §3, §4
# [8] = system: cancerous cell lines versus normal cell lines; details: cancerous versus normal cell lines (293T, WI-38)
# Protocol: as §3, §4
# [9] = system: SH-SY-5Y (human neuroblast-derived cell); details: read-out: 50% cell growth inhibitory concentration (IC50), 48 hours, 0.1% DMF
# Protocol: as §3, §4
# [10] = system: HLC-2 (human lung cancer-derived cell); details: read-out: 50% cell growth inhibitory concentration (IC50); HLC-2, 48 hours, 0.1% DMF
# Protocol: as §3, §4
# [11] = system: 39 cultured human cancer cell lines; experiment: Anticancer activity screening on 39 cultured human cancer cell lines (Japanese Foundation for Cancer Research); details: mean of 39 cultured human cancer cell lines
# Description: Evaluation of the anticancer activity on the 39 cultured human cancer cell lines from breast cancer cell line to prostate cancer cell line was made by screening test performed in The Japanese Foundation for Cancer Research.
# [12] = system: 5′-YG(A/T)CR-3′ sequence; details: low concentration, dimer, both chains, sites 5 base pairs apart; cited from earlier work
molecule,measurement,setting,value
"CC(=O)Nc1cn(C)c(C(=O)Nc2cn(C)c(C(=O)Nc3cc(C(=O)Nc4cc(C(=O)NCCC(=O)Nc5cc(C(=O)Nc6cc(C(=O)NCCCC(=O)Nc7cn(C)c(C(=O)Nc8cc(C(=O)NCCC(=O)Nc9cn(C)c(C(=O)Nc%10cc(C(=O)Nc%11ccc%12[nH]c(C(=O)N%13CC%14CC%14%15C%13=CC(=O)c%13ccccc%13%15)cc%12c%11)n(C)c%10)n9)n(C)c8)n7)n(C)c6)n(C)c5)n(C)c4)n(C)c3)n2)n1 (stereo not shown) [compound (3-6), AcImImPyPyβPyPy-γ-ImPyβImPy-Indole-CBI]",alkylated sites (sequence recognition),[1],alkylation (site 2) due to 1-bp-mismatch recognition was observed; also recorded: alkylation of AT-rich base sequences (sites 1 and 3) was also observed
same,efficiency of DNA alkylation,[1],"efficiently alkylated 1,000-base-pair DNA at nanomolar concentrations"
"CC(=O)Nc1cn(C)c(C(=O)Nc2cn(C)c(C(=O)Nc3cc(C(=O)NCCC(=O)Nc4cn(C)c(C(=O)Nc5cc(C(=O)Nc6ccc7[nH]c(C(=O)N8CC9CC9%10C8=CC(=O)c8ccccc8%10)cc7c6)n(C)c5)n4)n(C)c3)n2)n1 (stereo not drawn) [compound (3-7), AcImImPy-β-ImPy-Indole-CBI]",alkylated sites in the presence of compound (6),"[2]; compound (6) 500 nM, heterodimer",alkylation (site 4) based on accurate 10-base-pair recognition was observed
same,"alkylated sites, compound alone",[2]; nanomolar concentrations,efficient alkylation of sites 1 and 2 based on a hairpin mode of recognition and of site 3 based on a linear-chain mode of recognition
"CC(=O)Nc1cn(C)c(C(=O)Nc2cn(C)c(C(=O)Nc3cn(C)c(C(=O)NCCCC(=O)Nc4cc(C(=O)Nc5cc(C(=O)Nc6ccc7[nH]c(C(=O)N8CC(CCl)c9c8cc(O)c8ccccc98)cc7c6)n(C)c5)n(C)c4)n3)n2)n1 (stereo not shown) [compound (4-3), AcImImIm-γ-PyPy-Indole-seco-CBI]",telomeric-sequence-specific alkylation,[3],Efficient telomeric-sequence-specific alkylation (5′-ACCCTA-3′) in a hairpin mode of recognition
AcImImPyPy-γ-ImPy-Indole-CBI [compound (3-2)],alkylated sites (sequence recognition ability),[4],"alkylation in only site 3 (5′-TGACCA-3′) and site 6 (5′-AGTCCA-3′), which were match sequences, was observed"
same,efficiency of DNA alkylation,[4],efficient DNA alkylation comparable with that of a known Py-Im polyamide having a vinyl linker was observed at nanomolar concentrations
same,"sequence-specific DNA alkylation, alkylated sites",[5],"Sequence-specific DNA alkylation (site 2 and 3: 5′-TGACCA-3′, site 4: 5′-AGACCA-3′, site 5: 5′-TGTCCA-3′)"
same,IC50,[6],74.2 nM
same,IC50,[7],59.7 nM
same,anticancer activity against the cancerous cell lines relative to the normal cell lines,[8],about 10 times
same,IC50,[9],7.43 nM
same,IC50,[10],53.5 nM
same,mean log IC50 value of 39 cell lines,"[11]; log value, FIG. 9",about −7
same,IC50,"[11]; read-out: mean IC50 of 39 cell lines, printed in brackets after the log value",~100 nM
ImPyLDu86,alkylation efficiency,[12],70%
